# Data published in patent US10428106B2, “Phosphate replacement mRNA cap analogs” (ModernaTX, Inc., priority 2015, dated 2019).
# Legend:
# eIF4E = target: T1, eIF4E (Homo sapiens, UniProt P06730); experiment: Binding affinities to eIF4E using surface plasmon resonance (SPR)
# T1 construct: HNAVIpeptTEVeIF4E 32-217(Biotinylated)
# [1] = system: human primary hepatocytes; experiment: Cell-based expression assay in human primary hepatocytes; conditions: normalized expression level of mRNA carrying the cap, 5-methoxy uridine; Compound 7 mRNA Cap0-like, others Cap1-like
# HeLa Lysate [2] = experiment: Cell free translation assay of hEPO mRNAs carrying different caps; format: biochemical; conditions: hEPO levels after 3 hours; mRNA carrying the cap; modRNA with 5-methoxy uridine
# CD-1 mice = experiment: In vivo expression assay of hEPO mRNA in MC3-based LNP; conditions: i.v. bolus 0.05 mg/kg, 6 h after injection, mRNA carrying the cap, 5-methoxy uridine
# Experimental: mRNAs encoding hEPO are synthesized according to the method described in Example 2 above, co-transcriptionally incorporating cap analogs of the disclosure. […] A MC3-based lipid nanoparticle (LNP) formulation of the synthesized mRNA is produced, and is intravenously administered to CD-1 mice (n=3) at a bolus dose of 0.05 mg/kg. The level of hEPO was tested at 6 h, 24 h, or 48 h after injection.
# HeLa Lysate [3] = experiment: Cap competition assay in kinetic cell free in vitro translation (free cap analogs vs Cap1-tipped eGFP modRNA); format: biochemical; conditions: free cap analog 0-100 uM; modRNA with 1-methyl-pseudouridine and 5-methyl cytidine; fluorescence plateau
# Experimental: The in vitro translation assay was conducted with the HeLa 1-step coupled IVT kit (ThermoFisher Scientific, Waltham, Mass.) according to the manufacturer's instructions to assess performance of new cap analogs as free compounds or as an integral part of capped mRNA. Cap analogs with affinity to eIF4E protein may reduce protein synthesis rate in cell-free translation. Further, RNAs containing such cap analogs (“Cap-modRNA”) show different potency of protein synthesis in cell-free translation.
# The modified RNAs (“modRNAs”) of eGFP and mCitrine-degron, harboring chemical modifications on either the CAP structures, selected ribose units and/or the bases, were diluted in sterile nuclease-free water to a final amount of 500 ng in 5 uL. […] The in vitro translation reaction was done in a standard 96-well round bottom plate (Corning, Corning, N.Y.), covered with an self-adhesive fluorescence-compatible seal (BioRad, Hercules, Calif.) at 30° C. inside the plate reader Cytation 3 (BioTek, Winooski, Vt.).
# The fluorescent signal per reaction increased over time and is considered proportional to the occurring protein synthesis. Each cell-free translation reaction was monitored for 120-180 min with the following settings: eGFP protein—ex. […] The height of the reading head was set to 1 mm above the plate and a reading speed of one per sample every 17 seconds. […]
# [4] = residence time as listed in Table 5
# T1 sequence (P06730 32-217): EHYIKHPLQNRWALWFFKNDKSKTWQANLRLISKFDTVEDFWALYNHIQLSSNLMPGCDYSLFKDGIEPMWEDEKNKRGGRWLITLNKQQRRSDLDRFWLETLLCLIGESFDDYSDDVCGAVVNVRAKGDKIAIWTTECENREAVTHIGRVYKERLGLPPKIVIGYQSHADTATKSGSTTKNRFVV
τ (eIF4E; [4]) [s],"τ (eIF4E; residence time, inverse of koff, Table 3) [s]",IC50 (HeLa Lysate [3]) [µM],"Kd (eIF4E; SPR, Biacore 3000, captured biotinylated eIF4E, Table 3) [µM]",Structure (SMILES),h-primHeps norm to Capping and Cap1 [1],CFT (norm to conc. & capping & cap1) (HeLa Lysate [2]),in vivo hEPO normalized to capping and Cap1 (CD-1 mice)
0.6,–,–,–,CO[C@H]1[C@@H](O)[C@H](n2c[n+](C)c3c(=O)[nH]c(N)nc32)O[C@@H]1COP(=O)(O)OP(=O)(O)OP(=O)(O)OC[C@H]1O[C@@H](n2cnc3c(=O)[nH]c(N)nc32)[C@H](O)[C@@H]1O [ARCA],1.52,1.93,0.70
–,1.25,36,–,"Cn1c[n+]([C@@H]2O[C@H](COP(=O)(O)OP(=O)([O-])OP(=O)(O)OC[C@H]3O[C@@H](n4cnc5c(=O)[nH]c(N)nc54)[C@H](O)[C@@H]3O)[C@@H](O)[C@H]2O)c2nc(N)[nH]c(=O)c21 [Cap0 (i.e., m7GpppG), m7GpppG]",–,–,–
1.3,–,–,–,"CO[C@@H]1[C@H](O)[C@@H](COP(=O)(O)OP(=O)(O)OP(=O)(O)OC[C@H]2O[C@@H]([n+]3cn(C)c4c(=O)[nH]c(N)nc43)[C@H](O)[C@@H]2O)O[C@H]1n1cnc2c(=O)[nH]c(N)nc21 [Cap1, m7GpppG(2′-Om)]",1.00,1.00,1.00
–,–,–,300,C[n+]1cn([C@@H]2O[C@H](COP(=O)([O-])OCCN(CCOP(=O)([O-])OC[C@H]3O[C@@H](n4c[n+](C)c5c(=O)[nH]c(N)nc54)[C@H](O)[C@@H]3O)C(=O)OC(C)(C)C)[C@@H](O)[C@H]2O)c2nc(N)[nH]c(=O)c21 [Compound 25],–,–,–
